# Data published in patent US20040235080A1, “Methods and reagents for detecting endotoxin” (priority 2001, published 2004).
# Tests used:
# [1] = target: T1, recombinant Factor C (rFC) (Carcinoscorpius rotundicauda, UniProt Q26422); assay: recombinant Factor C (rFC) assay with different detergents and detergent concentrations; type: biochemical; settings: for Detergent concentration range for rFC inhibition / Detergent concentration range for rFC enhancing: 1 EU/ml EC-6 endotoxin, DPR-coumarin substrate, data after 30 minutes
# T1 construct: made in house; host or cells: Culture supernatant, lot 031901I
# T1 sequence (Q26422 26-1019): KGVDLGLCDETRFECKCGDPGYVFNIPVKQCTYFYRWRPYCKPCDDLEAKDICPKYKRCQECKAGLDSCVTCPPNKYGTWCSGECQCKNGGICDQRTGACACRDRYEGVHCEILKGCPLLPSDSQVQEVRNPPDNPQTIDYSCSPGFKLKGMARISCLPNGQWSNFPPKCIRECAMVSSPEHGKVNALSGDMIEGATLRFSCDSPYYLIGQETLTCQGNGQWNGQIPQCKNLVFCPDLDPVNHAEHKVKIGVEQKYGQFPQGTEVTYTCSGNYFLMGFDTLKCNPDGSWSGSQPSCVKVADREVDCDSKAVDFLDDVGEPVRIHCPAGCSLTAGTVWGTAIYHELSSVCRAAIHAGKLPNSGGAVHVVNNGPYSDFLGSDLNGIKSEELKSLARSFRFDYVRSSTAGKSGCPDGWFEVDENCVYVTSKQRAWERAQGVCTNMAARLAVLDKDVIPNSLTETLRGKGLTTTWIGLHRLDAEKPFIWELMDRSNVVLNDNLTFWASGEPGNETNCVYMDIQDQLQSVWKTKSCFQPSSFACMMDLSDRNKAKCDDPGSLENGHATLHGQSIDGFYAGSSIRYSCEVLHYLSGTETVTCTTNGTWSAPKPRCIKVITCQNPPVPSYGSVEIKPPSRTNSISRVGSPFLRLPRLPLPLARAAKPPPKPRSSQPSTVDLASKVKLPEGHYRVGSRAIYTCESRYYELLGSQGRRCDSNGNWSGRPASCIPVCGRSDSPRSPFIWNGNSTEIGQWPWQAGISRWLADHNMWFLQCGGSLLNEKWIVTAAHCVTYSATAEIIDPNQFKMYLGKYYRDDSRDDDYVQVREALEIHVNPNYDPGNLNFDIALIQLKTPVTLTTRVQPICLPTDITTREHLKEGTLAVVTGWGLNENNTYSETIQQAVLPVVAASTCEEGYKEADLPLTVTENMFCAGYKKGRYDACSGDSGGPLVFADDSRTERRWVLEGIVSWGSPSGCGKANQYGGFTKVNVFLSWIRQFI
# Description: The recombinant Factor C (rFC) assay was carried out using 20 μl of each detergent (˜10× of final concentration), 150 μl of 1 EU/ml EC-6, 10 μl of rFC supernatant 031901I, 20 μl of 300 mM Tris, pH 8.0, and 20 μl of 0.55 mM DPR-coumarin substrate. The results of the assay were read at 38° C. using a Cytofluor reader set at 390/440 nm, 5 minutes per cycle, for 1 hour. The data were graphed after 30 minutes.
# [2] = target: T2, recombinant Carcinoscorpius rotundicauda Factor C (Carcinoscorpius rotundicauda, UniProt Q26422); assay: endotoxin assay of Examples 1 and 13 (two-step and one-step); type: biochemical; settings: assay exemplified in Examples 1 and 13
# T2 construct: made in house; host or cells: Sf9 insect cells, baculovirus (pFASTBAC1 / bacmid); the secreted protein is used as culture supernatant
# T2 sequence (Q26422 26-1019): T1 sequence (Q26422 26-1019)
# Description: Endotoxin was pre-incubated with culture medium containing recombinant Carcinoscorpius rotundicauda Factor C obtained from recombinant Factor C-producing Sf9 cells for 1 hour in assay buffer (30 mM Tris, pH 8.0, 30 mM NaCl, 0.3% lactose, and 0.0025% Zwittergent 3-14). The substrate N-t-Boc-Asp(Obzl)-Pro-Arg-7-Amido-4-methyl coumarin (DPR-coumarin) was added to the mixture to a final concentration of […]. The fluorescence generated from the cleavage of the substrate by activated Factor C was measured after 15-20 minutes. Results of a similar assay carried out using the substrate N-t-Boc-Val-Pro-Arg-7-Amido-4-methyl coumarin at a final concentration of 100 mM are shown in FIG. 5.
# A one-step endotoxin assay can be carried out in a 96-well plate, using 100 μl each of blank and endotoxin standards. […] The plate is incubated at 37° C. for 1 hour. Excitation and emission are read at 390 and 440 nm, respectively, in a fluorescence microplate reader.
Compound,width of the enhancing concentration range [1],Detergent concentration range for rFC inhibition [1],Detergent concentration range for rFC enhancing [1],optimal concentration of the surfactant [2]
Triton X-100,narrow,>=0.008%,,
"CCCCCCCCCCCCOS(=O)(=O)[O-].[Na+] [SDS, sodium dodecyl sulfate]",,>=0.0004%,,
"CCCCCCCC/C=C\CCCCCCCC(=O)OCCOCC(OCCO)C1OCC(OCCO)C1OCCO (centres unmarked) [Tween 80, polyoxyethylene (20) sorbitan monooleate]",wide,>0.25%,0.001-0.25%,
"CCCCCCCCS[C@@H]1O[C@H](CO)[C@@H](O)[C@H](O)[C@H]1O [OTG, n-Octyl-beta-D-thioglycopyranoside]",narrow,>=0.5%,,
"CCCCCCCCCCCCCC[N+](C)(C)CCCS(=O)(=O)[O-] [Zwittergent 3-14, N-tetradecyl-N,N-dimethyl-3-ammonio-1-propanesulfonate]",narrow,>=0.004%,,0.0025%
"CCCCCCCCCCCC(=O)OCCOCCOCCOCCOCCOCCOCCOCCOCCOCCOCCOCCOCCOCCOCCOCCOCCOCCOCCOCCOCC(OCCOCCOCCOCCOCCOCCOCCOCCOCCOCCOCCOCCOCCOCCOCCOCCOCCOCCOCCOCCO)C1OCC(OCCOCCOCCOCCOCCOCCOCCOCCOCCOCCOCCOCCOCCOCCOCCOCCOCCOCCOCCOCCO)C1OCCOCCOCCOCCOCCOCCOCCOCCOCCOCCOCCOCCOCCOCCOCCOCCOCCOCCOCCOCCO (centres unmarked) [Tween 20, polyoxyethylene (20) sorbitan monolaurate]",wide,>0.5%,0.001-0.5%,
